Measured values from PubChem BioAssay AID1963834 (Molecular Pharmacology Branch, DTP, NCI, 2024).

System: 873145-292-R-J1-PDC complex spheroid viability
Assay: Anticancer human tumor 873145-292-R-J1-PDC patient-derived renal clear cell carcinoma cell line growth inhibition [POLQ]
Conditions: for IC50: curve of first compound; for viability, T/C: stronger effect = lower value
Description: Multicellular complex tumor spheroid response to Polymerase (POL) inhibitors (novobiocin, ART-558, RP6685) in combination with a variety of drugs and investigational agents in selected tumor cell lines
The POL inhibitors (novobiocin, ART-558, and RP6685) were evaluated both individually and in combination with standard of care and investigational anticancer small molecules within a complex spheroid model of solid tumors. . Complex spheroids include a stromal component modeled by human endothelial cells (HUVEC) and fibroblasts modeled by human mesenchymal stem cells (MSCs). The concentration ranges selected for each drug and investigational agent were based upon clinically achievable concentrations if the clinical Cmax of the agent was known.
Compounds. The drugs and investigational agents: novobiocin (NSC847541), ART-558 (NSC835418), RP-6685 (NSC848927), peposertib (NSC802822), ceralasertib (NSC780249), elimusertib (NSC800525), camonsertib (NSC841442), AZD-1390 (NSC803789), olaparib (NSC753686), talazoparib (NSC767125), rucaparib (NSC756644), sotorasib (NSC818433), MRTX-1133 (NSC836407), SN-38 (NSC673596), topotecan (NSC609699), epotoside (NSC141540), doxorubicin (NSC123127), gemcitabine (NSC613327), 5-fluorouracil (NSC19893), paclitaxel (NSC125973), vemurafenib (NSC761431), MSA-2 (NSC828583), SN-011 (NSC837082), adavosertib (NSC754352), prexasertib (NSC758257), carboplatin (NSC241240) and oxaliplatin (NSC266046), were obtained from the National Cancer Institute (NCI) Developmental Therapeutics Program Chemical Repository (21). The FDA-approved anticancer drug set is available from the Developmental Therapeutics Program at https://dtp.cancer.gov/organization/dscb/obtaining/. […] The stock solutions were prepared in dimethyl sulfoxide (DMSO, Sigma-Aldrich, St. Louis, MO, cat. D2650), except for the platinum compounds which were prepared in saline (Quality Biological, Gaithersburg, MD, cat. 114-055-101), at 800-fold the tested concentration and stored at -70 degrees C prior to their use. All drugs and investigational agents were tested over a range starting from a high concentration at or near the clinical Cmax and decreasing in half-log increments. If the clinical Cmax for an agent had not been determined, the highest concentration tested was 10 microM, except for SN-38, which was tested at a high concentration of 1 microM.
Cell Culture. All cells were maintained in an incubator at 37 degrees C and 5% CO2 with 95% humidity. The PDC lines were cultured according to standard operating procedures established by the NCI PDMR (https://pdmr.cancer.gov). Table 3 of the manuscript, lists the cell lines along with the number of the three cell types plated to form the mct-spheroids and media for tumor cell growth. After thawing, all PDC lines, except 997537-175-T-J1-PDC and 415267-285-R-J2-PDC, were cultured in Matrigel-coated flasks prepared with a working solution of 1X Ham's F-12 nutrient mix, without supplementation (Thermo Fisher Scientific, cat. 11765054), 100 U/mL penicillin-streptomycin (Thermo Fisher Scientific, cat. 15140122), and 2.5% Matrigel (Corning Inc., Corning, NY, cat. 354248) for the first three passages. The two PDC lines 997537-175-T-J1-PDC and 415267-285-R-J2-PDC were cultured on uncoated flasks. The 857933-349-R-J2-PDC line was cultured in 6C/Colon 1B media containing advanced DMEM/F-12 (Thermo Fisher Scientific, cat. 12634028), 10 mM HEPES (Thermo Fisher Scientific, cat. 15630080), 1X GlutaMAX supplement (Thermo Fisher Scientific, cat. 35050061), 0.1 mg/mL primocin (InvivoGen, San Diego, CA, cat. ant-pm-2), 10% defined fetal bovine serum, heat inactivated (HyClone Laboratories Inc., Logan, UT, cat. SH30070.03HI), 50% L-WRN conditioned media (ATCC, cat. CRL-3276), 1.25 mM N-Acetyl-L-cysteine (Sigma-Aldrich, cat. A9165), 10 mM nicotinamide (Sigma-Aldrich, cat. N0636), 1X B-27 supplement (Thermo Fisher Scientific, cat. 17504044), 1X N-2 supplement (Thermo Fisher Scientific, cat. […]

[1] = second compound 0.0316 µM, first compound 0.0316 µM
[2] = second compound 0.0316 µM, first compound 0.1 µM
[3] = second compound 0.0316 µM, first compound 0.316 µM
[4] = second compound 0.0316 µM, first compound 1 µM
[5] = second compound 0.0316 µM, first compound 3.16 µM
[6] = second compound 0.0316 µM, first compound 10 µM
[7] = second compound 0.1 µM, first compound 0.0316 µM
[8] = second compound 0.1 µM, first compound 0.1 µM
[9] = second compound 0.1 µM, first compound 0.316 µM
[10] = second compound 0.1 µM, first compound 1 µM
[11] = second compound 0.1 µM, first compound 3.16 µM
[12] = second compound 0.1 µM, first compound 10 µM
[13] = second compound 0.316 µM, first compound 0.0316 µM
[14] = second compound 0.316 µM, first compound 0.1 µM
[15] = second compound 0.316 µM, first compound 0.316 µM
[16] = second compound 0.316 µM, first compound 1 µM
[17] = second compound 0.316 µM, first compound 3.16 µM
[18] = second compound 0.316 µM, first compound 10 µM
[19] = second compound 1 µM, first compound 0.0316 µM
[20] = second compound 1 µM, first compound 0.1 µM
[21] = second compound 1 µM, first compound 0.316 µM
[22] = second compound 1 µM, first compound 1 µM
[23] = second compound 1 µM, first compound 3.16 µM
[24] = second compound 1 µM, first compound 10 µM
[25] = second compound 3.16 µM, first compound 0.0316 µM
[26] = second compound 3.16 µM, first compound 0.1 µM
[27] = second compound 3.16 µM, first compound 0.316 µM
[28] = second compound 3.16 µM, first compound 1 µM
[29] = second compound 3.16 µM, first compound 3.16 µM
[30] = second compound 3.16 µM, first compound 10 µM
[31] = second compound 10 µM, first compound 0.0316 µM
[32] = second compound 10 µM, first compound 0.1 µM
[33] = second compound 10 µM, first compound 0.316 µM
[34] = second compound 10 µM, first compound 1 µM
[35] = second compound 10 µM, first compound 3.16 µM
[36] = second compound 10 µM, first compound 10 µM
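Further: spheroids exposed to compounds for 7 days before viability readout.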
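Wherever viability, T/C is given: luminescence signal used as surrogate for viable cell content; 100% = DMSO vehicle control viability.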

Q: Which IC50 (second compound 0.0316 µM) does the source give for `C=CC(=O)N1CCN(c2nc(=O)n(-c3c(C)ccnc3C(C)C)c3nc(-c4c(O)cccc4F)c(F)cc23)C(C)C1` (centres undefined) + Nc1ccc(C#CCN(C(=O)Cc2ncc(C(F)(F)F)cc2C(F)(F)F)c2ccc(F)cc2)nn1 here?
A: > 10 µM

Q: And the IC50 (second compound 0.1 µM)?
A: > 10 µM

Q: What about the IC50 (second compound 0.316 µM) of the same compound?
A: > 10 µM

Q: And the IC50 (second compound 1 µM)?
A: > 10 µM

Q: What about the IC50 (second compound 3.16 µM) of the same compound?
A: > 10 µM

Q: What about the IC50 (second compound 10 µM) of the same compound?
A: > 10 µM

Q: And the viability, T/C [1]?
A: 112%

Q: And the viability, T/C [2]?
A: 105%

Q: What about the viability, T/C [3] of the same compound?
A: 106%

Q: What about the viability, T/C [4] of the same compound?
A: 120%

Q: And the viability, T/C [5]?
A: 132%

Q: What about the viability, T/C [6] of the same compound?
A: 134%

Q: What about the viability, T/C [7] of the same compound?
A: 111%

Q: What about the viability, T/C [8] of the same compound?
A: 110%

Q: And the viability, T/C [9]?
A: 117%

Q: What about the viability, T/C [10] of the same compound?
A: 124%

Q: What about the viability, T/C [11] of the same compound?
A: 119%

Q: What about the viability, T/C [12] of the same compound?
A: 128%

Q: What about the viability, T/C [13] of the same compound?
A: 116%

Q: What about the viability, T/C [14] of the same compound?
A: 117%

Q: What about the viability, T/C [15] of the same compound?
A: 103%

Q: What about the viability, T/C [16] of the same compound?
A: 126%

Q: What about the viability, T/C [17] of the same compound?
A: 135%

Q: What about the viability, T/C [18] of the same compound?
A: 123%

Q: And the viability, T/C [19]?
A: 107%

Q: And the viability, T/C [20]?
A: 110%

Q: What about the viability, T/C [21] of the same compound?
A: 107%

Q: And the viability, T/C [22]?
A: 129%

Q: And the viability, T/C [23]?
A: 136%

Q: What about the viability, T/C [24] of the same compound?
A: 126%

Q: What about the viability, T/C [25] of the same compound?
A: 112%

Q: And the viability, T/C [26]?
A: 116%

Q: And the viability, T/C [27]?
A: 113%

Q: What about the viability, T/C [28] of the same compound?
A: 131%

Q: And the viability, T/C [29]?
A: 135%

Q: What about the viability, T/C [30] of the same compound?
A: 139%

Q: And the viability, T/C [31]?
A: 126%

Q: What about the viability, T/C [32] of the same compound?
A: 113%

Q: What about the viability, T/C [33] of the same compound?
A: 119%

Q: What about the viability, T/C [34] of the same compound?
A: 132%

Q: What about the viability, T/C [35] of the same compound?
A: 134%

Q: What about the viability, T/C [36] of the same compound?
A: 142%

Q: For `COc1cc(C2c3cc4c(cc3C(OC3OC5COC(C)OC5C(O)C3O)C3COC(=O)C23)OCO4)cc(OC)c1O` (centres undefined) + Nc1ccc(C#CCN(C(=O)Cc2ncc(C(F)(F)F)cc2C(F)(F)F)c2ccc(F)cc2)nn1, which IC50 (second compound 0.0316 µM) is on record?
A: > 10 µM

Q: What about the IC50 (second compound 0.1 µM) of the same compound?
A: > 10 µM

Q: What about the IC50 (second compound 0.316 µM) of the same compound?
A: > 10 µM

Q: And the IC50 (second compound 1 µM)?
A: > 10 µM

Q: What about the IC50 (second compound 3.16 µM) of the same compound?
A: > 10 µM

Q: And the IC50 (second compound 10 µM)?
A: > 10 µM

Q: What about the viability, T/C [1] of the same compound?
A: 107%

Q: What about the viability, T/C [2] of the same compound?
A: 104%

Q: What about the viability, T/C [3] of the same compound?
A: 105%

Q: And the viability, T/C [4]?
A: 95.3%

Q: What about the viability, T/C [5] of the same compound?
A: 82.3%

Q: What about the viability, T/C [6] of the same compound?
A: 68%

Q: What about the viability, T/C [7] of the same compound?
A: 107%

Q: What about the viability, T/C [8] of the same compound?
A: 118%

Q: And the viability, T/C [9]?
A: 97.7%

Q: What about the viability, T/C [10] of the same compound?
A: 88.6%

Q: What about the viability, T/C [11] of the same compound?
A: 83.9%

Q: And the viability, T/C [12]?
A: 58.7%

Q: What about the viability, T/C [13] of the same compound?
A: 103%

Q: And the viability, T/C [14]?
A: 106%

Q: What about the viability, T/C [15] of the same compound?
A: 109%

Q: And the viability, T/C [16]?
A: 98.8%

Q: What about the viability, T/C [17] of the same compound?
A: 87.6%

Q: What about the viability, T/C [18] of the same compound?
A: 62%

Q: And the viability, T/C [19]?
A: 99.5%

Q: And the viability, T/C [20]?
A: 105%

Q: What about the viability, T/C [21] of the same compound?
A: 107%

Q: And the viability, T/C [22]?
A: 95.3%

Q: What about the viability, T/C [23] of the same compound?
A: 87.4%

Q: And the viability, T/C [24]?
A: 72.8%

Q: And the viability, T/C [25]?
A: 112%

Q: What about the viability, T/C [26] of the same compound?
A: 109%

Q: And the viability, T/C [27]?
A: 109%

Q: And the viability, T/C [28]?
A: 93.3%

Q: And the viability, T/C [29]?
A: 76.3%

Q: And the viability, T/C [30]?
A: 58.8%

Q: And the viability, T/C [31]?
A: 103%

Q: What about the viability, T/C [32] of the same compound?
A: 107%

Q: And the viability, T/C [33]?
A: 110%

Q: What about the viability, T/C [34] of the same compound?
A: 97.1%

Q: And the viability, T/C [35]?
A: 78.5%

Q: What about the viability, T/C [36] of the same compound?
A: 67.3%
